pEC50: −log10 of the molar value.

This experiment concerns C666-1 cells. Kind of experiment: C666-1 Cell Viability Assay (Resazurin cytotoxicity test). It counts as cell-based. The note with it: Homo sapiens, C6661, EB virus-positive C666-1 cells, 72 hours treatment, 100-0.78 micromole/L, read-out: Inhibitory Rate. An outline of the steps:
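EBV-positive nasopharyngeal carcinoma C666-1 cells, 5×10^3 per well, were grown 24 h, then exposed to compound for 72 h at 37 °C (8-point two-fold dilutions, final 100–0.78 µM). Viability was read by resazurin reduction fluorescence after 3 h; EC50 came from the fitted inhibition curve.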
On the technique in general: The colour change of resazurin is a common sign of viable cells or microbes.
With `O=C(Cc1cccnc1)Nc1ccc(OC2CN(c3cccc(C(=O)O)c3-c3ccccc3)C2)cc1F` [Example 54a, 6-(3-(3-fluoro-4-(2-(pyridin-3-yl)acetamido)phenoxy)azetidin-1-yl)-[1,1′-biphenyl]-2-carboxylic acid], the pEC50 is 5.00 to 6.00.

As to `COC(=O)c1cccc(N2CC(Oc3ccc(COc4cccs4)cc3)C2)c1-n1cccc1` [Example 30, methyl 2-(1H-pyrrol-1-yl)-3-(3-(4-((thiophen-2-yloxy)methyl)phenoxy)azetidin-1-yl) benzoate], the pEC50 is under 4.30.

For the compound `O=C(Cc1cccnc1)Nc1ccc(OC2CN(c3cccc(C(=O)O)c3-c3cccc(Cl)c3)C2)cc1` [Example 48a, 3′-chloro-6-(3-(4-(2-(pyridin-3-yl)acetamido)phenoxy)azetidin-1-yl)-[1,1′-biphenyl]-2-carboxylic acid], the pEC50 is 4.30 to 5.00.

For the compound `O=C(Cc1cccnc1)Nc1ccc(OC2CN(c3cccc(C(=O)O)c3-n3cccc3)C2)cc1` [Example 51a, 3-(3-(4-(2-(pyridin-3-yl)acetamido)phenoxy)azetidin-1-yl)-2-(1H-pyrrol-1-yl) benzoic acid], the pEC50 was over 6.00.

In the case of `COC(=O)c1cccc(N2CC(Oc3ccc(Cn4ccnc4)cc3)C2)c1-n1cccc1` [Example 56, methyl 3-(3-(4-((1H-imidazol-1-yl)methyl)phenoxy)azetidin-1-yl)-2-(1H-pyrrol-1-yl) benzoate], the pEC50 was 4.30 to 5.00.

On to `Cc1ccncc1OCc1ccc(OC2CN(c3cccc(C(=O)O)c3-n3cccc3)C2)cc1` [Example 2a, 3-(3-(4-((4-methylpyridin-3-yloxy)methyl)phenoxy)azetidin-1-yl)-2-(1H-pyrrol-1-yl) benzoic acid], for which the pEC50 is under 4.30.

Regarding `COC(=O)c1cccc(N2CC(Oc3ccc(CC(=O)Nc4ccccc4)cc3)C2)c1-n1cccc1` [Example 35, methyl 3-(3-(4-(2-oxo-2-(phenylamino)ethyl)phenoxy)azetidin-1-yl)-2-(1H-pyrrol-1-yl) benzoate], the pEC50 was under 4.30.

`O=C(O)c1cccc(N2CC(Oc3ccc(Cn4ccnc4)cc3)C2)c1-n1cccc1` [Example 56a, 3-(3-(4-((1H-imidazol-1-yl)methyl)phenoxy)azetidin-1-yl)-2-(1H-pyrrol-1-yl) benzoic acid]: the pEC50 is 4.30 to 5.00.

Regarding `O=C(O)c1cccc(N2CC(Oc3ccc(Oc4ccncc4)cc3)C2)c1-n1cccc1` [Example 26a, 3-(3-(4-(pyridin-4-yloxy)phenoxy)azetidin-1 - yl)-2-(1H-pyrrol-1-yl) benzoic acid], the pEC50 is 4.30 to 5.00.

Turning to `O=C(Nc1ccc(OC2CN(c3cccc(C(=O)O)c3-n3cccc3)C2)cc1)Nc1cccc(C(F)(F)F)c1` [Example 10a, 2-(1H-pyrol-1-yl)-3-(3-(4-(3-(3-(trifluoromethyl)phenyl)ureido)phenoxy)azetidin-1-yl) benzoic acid], the pEC50 is 4.30 to 5.00.

As for `O=C(Nc1ccc(OC2CN(c3cccc(C(=O)O)c3-n3cccc3)C2)cc1)Nc1cncc(F)c1` [Example 46a, 3-(3-(4-(3-(5-fluoropyridin-3-yl)ureido)phenoxy)azetidin-1-yl)-2-(1H-pyrrol-1-yl) benzoic acid], the pEC50 was 5.00 to 6.00.

Consider `COC(=O)c1cccc(C#Cc2ccc(NC(=O)Nc3cccnc3)cc2)c1-c1ccccc1` [Example 58, methyl 6-((4-(3-(pyridin-3-yl)ureido)phenyl)ethynyl)-[1,1′-biphenyl]-2-carboxylate], for which the pEC50 is over 6.00.

As to `O=C(O)c1cccc(N2CC(Oc3ccc(COc4cccnc4)cc3)C2)c1-c1ccccc1` [Example 17a, 6-(3-(4-((pyridin-3-yloxy)methyl)phenoxy)azetidin-1-yl)-[1,1′-biphenyl]-2-carboxylic acid], the pEC50 was 5.00 to 6.00.

For `O=C(O)c1cccc(N2CC(Oc3ccc(/C=C/c4cccnc4)cc3)C2)c1-n1cccc1` [Example 28a, (E)-3-(3-(4-(2-(pyridin-3-yl)vinyl)phenoxy)azetidin-1-yl)-2-(1H-pyrrol-1-yl) benzoic acid], the pEC50 is 5.00 to 6.00.

For the compound `O=C(O)c1cccc(N2CC(Oc3ccc(COc4ccccn4)cc3)C2)c1-n1cccc1` [Example 12a, 3-(3-(4-((pyridin-2-yloxy)methyl)phenoxy)azetidin-1-yl)-2-(1H-pyrrol-1-yl) benzoic acid], the pEC50 is under 4.30.

For `COC(=O)c1cccc(N2CC(Oc3ccc(CCc4cccnc4)cc3)C2)c1-n1cccc1` [Example 29, methyl 3-(3-(4-(2-(pyridin-3-yl)ethyl)phenoxy)azetidin-1-yl)-2-(1H-pyrrol-1-yl) benzoate], the pEC50 was under 4.30.

For `CN(C(=O)Nc1cccc(C#N)c1)c1ccc(OC2CN(c3cccc(C(=O)O)c3-n3cccc3)C2)cc1` [Example 7a, 3-(3-(4-(3-(3-cyanophenyl)-1 - methylureido)phenoxy)azetidin-1-yl)-2-(1H-pyrrol-1-yl) benzoic acid], the pEC50 was 4.30 to 5.00.

For `O=C(c1cccc(N2CC(Oc3ccc(COc4cccnc4)cc3)C2)c1-n1cccc1)N1CCCC1` [Example 1f, (3-(3-(4-((pyridin-3-yloxy)methyl)phenoxy)azetidin-1-yl)-2-(1H-pyrrol-1-yl)phenyl)(pyrrolidin-1-yl) methanone], the pEC50 was 5.00 to 6.00.

With `Cc1c(C(=O)O)cccc1N1CC(Oc2ccc(NC(=O)Cc3cccnc3)cc2)C1` [Example 53a, 2-methyl-3-(3-(4-(2-(pyridin-3-yl)acetamido)phenoxy)azetidin-1-yl) benzoic acid], the pEC50 was 4.30 to 5.00.

`COC(=O)c1cccc(N2CC(Oc3ccc(COc4cncc(C)c4)cc3)C2)c1-n1cccc1` [Example 3, methyl 3-(3-(4-((5-methylpyridin-3-yloxy)methyl)phenoxy)azetidin-1-yl)-2-(1H-pyrrol-1-yl) benzoate]: the pEC50 was under 4.30.

On to `CNC(=O)c1cccc(N2CC(Oc3ccc(NC(=O)Cc4cccnc4)cc3)C2)c1-c1ccccc1` [Example 45c, N-methyl-6-(3-(4-(2-(pyridin-3-yl)acetamido)phenoxy)azetidin-1-yl)-[1,1′-biphenyl]-2-carboxamide], for which the pEC50 was over 6.00.

For the compound `O=C(Nc1ccc(OC2CN(c3cccc(C(=O)O)c3-n3cccc3)C2)cc1)Nc1cccnc1` [Example 34a, 3-(3-(4-(3-(pyridin-3-yl)ureido)phenoxy)azetidin-1-yl)-2-(1H-pyrrol-1-yl) benzoic acid], the pEC50 was 5.00 to 6.00.

As for `COC(=O)c1cccc(C#Cc2ccc(NC(=O)Nc3cccnc3)c(O)c2)c1-c1ccccc1` [Example 22, methyl 6-((3-hydroxy-4-(3-(pyridin-3-yl)ureido)phenyl)ethynyl)-[1,1′-biphenyl]-2-carboxylate], the pEC50 is over 6.00.

As to `O=C(O)c1cccc(N2CC(Oc3ccc(CCc4cccnc4)cc3)C2)c1-n1cccc1` [Example 29a, 3-(3-(4-(2-(pyridin-3-yl)ethyl)phenoxy)azetidin-1-yl)-2-(1H-pyrrol-1-yl) benzoic acid], the pEC50 is under 4.30.

Regarding `COC(=O)c1cccc(N2CC(Oc3ccc(CC(=O)Nc4cccnc4)cc3)C2)c1` [Example 43, methyl 3-(3-(4-(2-oxo-2-(pyridin-3-ylamino)ethyl)phenoxy)azetidin-1-yl) benzoate], the pEC50 is 5.00 to 6.00.

In the case of `Cc1ccc(OCc2ccc(OC3CN(c4cccc(C(=O)O)c4-n4cccc4)C3)cc2)cn1` [Example 5a, 3-(3-(4-((6-methylpyridin-3-yloxy)methyl)phenoxy)azetidin-1-yl)-2-(1H-pyrrol-1-yl) benzoic acid], the pEC50 was under 4.30.
